Measurements published in ChEMBL document CHEMBL5465560, “Selectivity Literature for EUbOPEN Chemogenomic Library” (2024).

Assays:
[1] = molecular target: Serine/threonine-protein kinase MARK2 (Homo sapiens) (UniProt Q7KZI7); test: Selectivity interaction (ActivX KiNativ screen (kinase selectivity in THP-1 cell lysates)) EUB0000639a MARK2; type: subcellular; settings: lysate, at 0.01 µM
[2] = molecular target: T1, Serine/threonine-protein kinase Nek1 (Homo sapiens) (UniProt Q96PY6); test: Selectivity interaction (Kinase screening (Nanosyn)) EUB0000604a NEK1
T1 sequence (whole entry): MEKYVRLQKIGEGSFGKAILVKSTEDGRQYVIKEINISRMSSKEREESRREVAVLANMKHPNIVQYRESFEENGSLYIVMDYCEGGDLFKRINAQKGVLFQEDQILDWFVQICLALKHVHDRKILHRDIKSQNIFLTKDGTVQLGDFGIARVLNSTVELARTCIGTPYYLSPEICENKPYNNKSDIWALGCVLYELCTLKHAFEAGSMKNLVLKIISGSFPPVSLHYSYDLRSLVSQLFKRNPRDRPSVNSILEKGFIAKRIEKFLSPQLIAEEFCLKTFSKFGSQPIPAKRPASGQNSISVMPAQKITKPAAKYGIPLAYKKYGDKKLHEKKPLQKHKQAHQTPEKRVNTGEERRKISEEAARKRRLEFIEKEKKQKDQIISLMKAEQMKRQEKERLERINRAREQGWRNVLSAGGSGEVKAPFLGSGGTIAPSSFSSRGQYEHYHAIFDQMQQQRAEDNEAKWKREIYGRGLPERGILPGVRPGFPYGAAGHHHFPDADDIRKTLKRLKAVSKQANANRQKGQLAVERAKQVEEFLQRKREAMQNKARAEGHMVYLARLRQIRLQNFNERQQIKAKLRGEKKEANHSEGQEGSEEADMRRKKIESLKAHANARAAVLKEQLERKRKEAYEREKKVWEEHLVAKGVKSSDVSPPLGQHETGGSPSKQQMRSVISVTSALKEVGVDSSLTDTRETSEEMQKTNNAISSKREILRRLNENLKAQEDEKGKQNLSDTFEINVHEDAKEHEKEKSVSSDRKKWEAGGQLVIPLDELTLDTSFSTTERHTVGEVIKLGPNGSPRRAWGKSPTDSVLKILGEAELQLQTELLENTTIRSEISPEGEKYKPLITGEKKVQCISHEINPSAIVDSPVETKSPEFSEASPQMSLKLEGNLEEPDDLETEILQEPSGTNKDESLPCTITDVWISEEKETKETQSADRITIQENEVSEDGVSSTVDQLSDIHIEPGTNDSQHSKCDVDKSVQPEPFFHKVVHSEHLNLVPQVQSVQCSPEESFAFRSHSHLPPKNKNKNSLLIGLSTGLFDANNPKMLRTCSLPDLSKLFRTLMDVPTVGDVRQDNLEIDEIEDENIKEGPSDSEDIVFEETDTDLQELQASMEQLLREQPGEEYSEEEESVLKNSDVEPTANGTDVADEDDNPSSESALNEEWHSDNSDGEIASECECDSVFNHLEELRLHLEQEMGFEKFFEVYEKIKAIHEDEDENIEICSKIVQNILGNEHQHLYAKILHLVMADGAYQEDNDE

[3] = molecular target: T2, Myosin-IIIb (Homo sapiens) (UniProt Q8WXR4); test: Selectivity interaction (KinomeScan (DiscoverX)) EUB0000618a MYO3B; settings: at 10 µM
T2 sequence (whole entry): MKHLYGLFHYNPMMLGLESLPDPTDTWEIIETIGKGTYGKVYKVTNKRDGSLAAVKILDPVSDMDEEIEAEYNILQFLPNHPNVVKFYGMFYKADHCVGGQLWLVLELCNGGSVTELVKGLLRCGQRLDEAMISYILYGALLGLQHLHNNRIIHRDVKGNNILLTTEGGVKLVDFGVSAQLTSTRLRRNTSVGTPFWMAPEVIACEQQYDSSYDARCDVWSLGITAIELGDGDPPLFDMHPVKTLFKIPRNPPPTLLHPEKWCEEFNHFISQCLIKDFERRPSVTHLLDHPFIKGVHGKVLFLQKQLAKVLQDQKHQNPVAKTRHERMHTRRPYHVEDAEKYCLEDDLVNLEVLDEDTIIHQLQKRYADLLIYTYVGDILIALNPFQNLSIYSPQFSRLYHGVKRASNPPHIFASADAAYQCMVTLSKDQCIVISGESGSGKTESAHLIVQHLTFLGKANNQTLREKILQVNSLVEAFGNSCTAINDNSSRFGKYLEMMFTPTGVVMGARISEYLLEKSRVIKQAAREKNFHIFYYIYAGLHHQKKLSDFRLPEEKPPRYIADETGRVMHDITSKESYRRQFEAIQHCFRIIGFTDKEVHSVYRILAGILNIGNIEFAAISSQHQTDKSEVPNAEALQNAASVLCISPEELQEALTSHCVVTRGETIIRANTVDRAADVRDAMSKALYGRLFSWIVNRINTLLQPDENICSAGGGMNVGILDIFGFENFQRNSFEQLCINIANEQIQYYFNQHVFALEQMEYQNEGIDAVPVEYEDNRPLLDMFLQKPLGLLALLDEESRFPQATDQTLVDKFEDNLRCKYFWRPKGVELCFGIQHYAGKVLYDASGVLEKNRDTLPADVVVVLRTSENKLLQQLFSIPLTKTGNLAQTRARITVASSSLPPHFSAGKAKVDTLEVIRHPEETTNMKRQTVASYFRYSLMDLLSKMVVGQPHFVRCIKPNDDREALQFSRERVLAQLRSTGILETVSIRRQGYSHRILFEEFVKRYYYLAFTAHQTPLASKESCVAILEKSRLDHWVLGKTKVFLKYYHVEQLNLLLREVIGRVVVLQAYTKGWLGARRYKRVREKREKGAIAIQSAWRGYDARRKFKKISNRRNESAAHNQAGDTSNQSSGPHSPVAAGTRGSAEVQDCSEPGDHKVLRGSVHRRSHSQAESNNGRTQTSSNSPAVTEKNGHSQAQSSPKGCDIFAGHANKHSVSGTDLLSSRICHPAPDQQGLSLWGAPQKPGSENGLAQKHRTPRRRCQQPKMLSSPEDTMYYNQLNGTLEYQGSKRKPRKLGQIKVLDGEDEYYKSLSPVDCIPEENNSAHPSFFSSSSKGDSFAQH

[4] = molecular target: Phosphatidylinositol 4-phosphate 3-kinase C2 domain-containing subunit beta (Homo sapiens) (UniProt O00750); test: Selectivity interaction (KinomeScan (DiscoverX)) EUB0000618a PIK3C2B; settings: at 10 µM
[5] = tested on: Phosphatidylinositol 4,5-bisphosphate 3-kinase catalytic subunit alpha isoform (Homo sapiens), P42336 [H1047L]; settings: at 10 µM
Phosphatidylinositol 4,5-bisphosphate 3-kinase catalytic subunit alpha isoform (Homo sapiens), P42336 [H1047L], sequence (P42336 whole entry H1047L, canonical isoform): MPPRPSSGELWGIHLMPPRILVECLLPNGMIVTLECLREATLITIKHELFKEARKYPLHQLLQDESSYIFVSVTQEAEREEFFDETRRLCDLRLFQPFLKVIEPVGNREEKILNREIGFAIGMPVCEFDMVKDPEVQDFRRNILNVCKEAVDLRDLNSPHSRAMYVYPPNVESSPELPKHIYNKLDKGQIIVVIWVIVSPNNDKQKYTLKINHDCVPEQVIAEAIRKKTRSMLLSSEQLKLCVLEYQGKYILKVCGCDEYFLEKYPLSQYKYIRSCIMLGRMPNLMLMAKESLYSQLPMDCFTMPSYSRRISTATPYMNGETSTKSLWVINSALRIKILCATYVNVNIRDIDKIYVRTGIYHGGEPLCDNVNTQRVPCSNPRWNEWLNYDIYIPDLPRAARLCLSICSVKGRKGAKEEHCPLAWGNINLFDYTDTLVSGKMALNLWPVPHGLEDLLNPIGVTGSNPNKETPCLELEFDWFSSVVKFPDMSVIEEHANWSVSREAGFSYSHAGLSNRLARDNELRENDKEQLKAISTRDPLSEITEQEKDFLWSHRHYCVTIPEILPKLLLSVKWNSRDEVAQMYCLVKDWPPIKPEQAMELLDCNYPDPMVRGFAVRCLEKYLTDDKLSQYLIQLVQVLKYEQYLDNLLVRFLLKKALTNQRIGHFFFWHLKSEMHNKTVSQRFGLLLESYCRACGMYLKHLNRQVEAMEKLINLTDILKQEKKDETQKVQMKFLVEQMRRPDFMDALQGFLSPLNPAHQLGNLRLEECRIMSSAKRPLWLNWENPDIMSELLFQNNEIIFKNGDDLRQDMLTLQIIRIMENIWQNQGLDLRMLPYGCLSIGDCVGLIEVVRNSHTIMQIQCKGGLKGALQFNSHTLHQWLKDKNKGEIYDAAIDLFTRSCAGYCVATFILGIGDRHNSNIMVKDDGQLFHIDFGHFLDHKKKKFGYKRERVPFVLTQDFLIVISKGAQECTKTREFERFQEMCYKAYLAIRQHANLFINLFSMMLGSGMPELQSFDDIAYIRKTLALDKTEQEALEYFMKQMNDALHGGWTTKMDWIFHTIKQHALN

Phosphatidylinositol 4-phosphate 3-kinase C2 domain-containing subunit beta (Homo sapiens), sequence (O00750 whole entry, the tested form may be a part, canonical isoform): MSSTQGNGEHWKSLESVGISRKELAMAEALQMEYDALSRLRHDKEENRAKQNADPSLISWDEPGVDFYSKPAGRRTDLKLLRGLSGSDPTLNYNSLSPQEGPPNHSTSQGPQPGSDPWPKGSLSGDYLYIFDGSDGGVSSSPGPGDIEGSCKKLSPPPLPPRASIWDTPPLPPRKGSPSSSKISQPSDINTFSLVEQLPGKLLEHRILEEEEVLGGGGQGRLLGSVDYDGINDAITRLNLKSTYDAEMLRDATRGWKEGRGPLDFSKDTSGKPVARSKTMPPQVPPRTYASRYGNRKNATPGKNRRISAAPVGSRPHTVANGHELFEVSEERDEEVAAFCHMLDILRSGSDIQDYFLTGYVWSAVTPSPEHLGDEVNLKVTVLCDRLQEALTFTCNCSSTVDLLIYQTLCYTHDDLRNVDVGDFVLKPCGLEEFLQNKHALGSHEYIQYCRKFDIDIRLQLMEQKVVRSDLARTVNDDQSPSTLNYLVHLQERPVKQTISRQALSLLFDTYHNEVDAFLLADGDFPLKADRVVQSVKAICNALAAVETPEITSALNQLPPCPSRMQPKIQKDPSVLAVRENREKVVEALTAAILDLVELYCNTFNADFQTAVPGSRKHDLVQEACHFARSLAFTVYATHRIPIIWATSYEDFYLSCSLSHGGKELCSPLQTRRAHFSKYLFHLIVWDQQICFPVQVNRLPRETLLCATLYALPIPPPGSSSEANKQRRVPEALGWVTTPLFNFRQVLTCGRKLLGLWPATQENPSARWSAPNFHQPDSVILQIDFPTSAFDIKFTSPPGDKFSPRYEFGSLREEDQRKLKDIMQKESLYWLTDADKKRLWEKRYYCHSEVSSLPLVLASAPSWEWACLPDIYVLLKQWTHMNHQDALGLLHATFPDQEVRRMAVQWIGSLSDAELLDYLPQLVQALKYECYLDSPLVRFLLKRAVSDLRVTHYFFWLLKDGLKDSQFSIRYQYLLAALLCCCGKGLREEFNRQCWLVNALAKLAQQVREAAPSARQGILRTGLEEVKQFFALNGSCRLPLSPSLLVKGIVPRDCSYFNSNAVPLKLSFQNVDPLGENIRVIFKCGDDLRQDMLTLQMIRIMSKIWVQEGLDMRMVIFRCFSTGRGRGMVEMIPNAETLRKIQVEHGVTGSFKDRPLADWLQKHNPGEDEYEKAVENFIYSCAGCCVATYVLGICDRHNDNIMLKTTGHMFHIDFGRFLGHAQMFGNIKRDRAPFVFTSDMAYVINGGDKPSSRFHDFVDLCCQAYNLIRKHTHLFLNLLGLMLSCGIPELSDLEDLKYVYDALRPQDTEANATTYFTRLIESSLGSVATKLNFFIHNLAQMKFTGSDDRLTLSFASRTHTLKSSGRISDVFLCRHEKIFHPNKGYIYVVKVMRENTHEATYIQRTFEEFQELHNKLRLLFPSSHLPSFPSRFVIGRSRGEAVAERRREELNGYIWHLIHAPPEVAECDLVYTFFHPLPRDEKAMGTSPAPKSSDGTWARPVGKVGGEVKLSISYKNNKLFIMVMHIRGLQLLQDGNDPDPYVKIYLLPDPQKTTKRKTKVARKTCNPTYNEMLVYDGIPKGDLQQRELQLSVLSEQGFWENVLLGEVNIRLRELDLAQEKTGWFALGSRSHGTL
Serine/threonine-protein kinase MARK2 (Homo sapiens), sequence (Q7KZI7 whole entry): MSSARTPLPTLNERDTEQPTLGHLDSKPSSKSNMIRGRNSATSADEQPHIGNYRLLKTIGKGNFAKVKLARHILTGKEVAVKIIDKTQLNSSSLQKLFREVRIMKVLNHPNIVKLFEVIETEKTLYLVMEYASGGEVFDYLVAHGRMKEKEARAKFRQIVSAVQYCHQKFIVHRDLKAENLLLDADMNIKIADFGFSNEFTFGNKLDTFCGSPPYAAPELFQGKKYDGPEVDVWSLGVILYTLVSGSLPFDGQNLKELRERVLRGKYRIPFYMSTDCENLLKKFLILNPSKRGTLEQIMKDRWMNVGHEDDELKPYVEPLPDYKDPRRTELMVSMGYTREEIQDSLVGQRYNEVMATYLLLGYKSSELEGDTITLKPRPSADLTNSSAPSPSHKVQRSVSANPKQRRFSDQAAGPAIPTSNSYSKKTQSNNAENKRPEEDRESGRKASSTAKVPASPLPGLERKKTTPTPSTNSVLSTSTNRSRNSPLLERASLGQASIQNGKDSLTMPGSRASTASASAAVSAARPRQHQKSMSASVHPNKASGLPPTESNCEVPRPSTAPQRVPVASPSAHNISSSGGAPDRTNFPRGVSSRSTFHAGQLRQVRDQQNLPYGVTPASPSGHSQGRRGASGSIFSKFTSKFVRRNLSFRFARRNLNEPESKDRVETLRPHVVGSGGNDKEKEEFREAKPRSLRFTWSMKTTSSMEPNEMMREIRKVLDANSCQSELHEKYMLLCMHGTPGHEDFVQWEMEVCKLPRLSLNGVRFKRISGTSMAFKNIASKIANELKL

## CC[C@@H]1[C@H](F)C(=O)N[C@@H]1COc1nccc2cc(C(N)=O)c(OC)cc12 [ZIMLOVISERTIB]
[1]
  % of inhibition: 2.3%

## Cc1cnc(Nc2ccc(F)cc2Cl)nc1-c1c[nH]c(C(=O)N[C@H](CO)c2cccc(Cl)c2)c1
[2]
  % of inhibition: 6%

## O[C@H]1CC[C@H](Nc2ncc3nc(Nc4c(F)cc(F)cc4F)n([C@H]4CCOC4)c3n2)CC1
[3]
  % of control: 95%
[4]
  % of control: 97%

## CNC(=O)Nc1ccc(-c2nc(N3CC4CCC(C3)O4)c3cnn(C4CCC5(CC4)OCCO5)c3n2)cc1
[5]
  % of control: 15%
